Measurements published in patent US12264142B2, “Heterocyclic compounds” (FLORATEK PHARMA SA, priority 2019, dated 2025).
Read-outs that look alike come from different tables or passages of the source.

Columns and labels:
C. elegans [1] = test: Life span assay on Automated Lifespan Machine (SND302, SND303); assay type: in vivo; conditions: for Mean lifespan: area under the survival curve; for Age in days at 25% mortality / Age in days at 50% mortality / Age in days at 75% mortality / Age in days at 90% mortality / Age in days at 100% mortality: SND302, SND303 25 μM, Uro A, Resveratrol 50 μM; for Effect on lifespan: in words, compared to control
Procedure: An additional life span assay using an adapted standard protocol employed and published by the C. elegans Intervention Testing Program, or CITP was employed to assess the activity of SND302 and SND303. A positive and a negative control were included in the assay. In a preliminary experiment the optimal conditions for the life span analysis was determined and the stress level induced by the compounds as well as toxicity were measured.
For the life span assay over 300 worms per conditions were used and the study was conducted by InVivoBiosystems (USA) using an Automated Lifespan Machine (ALM) with proprietary modifications to improve temperature stability and image acquisition.
To prevent chemical modification or metabolism of the test article by the food bacteria, worms were fed on a lawn of UV-killed bacteria (UV-i bacteria). An overnight culture of E. coli strain WP-2 was pelleted, washed, filtered, and irradiated. A suspension of UV-i bacteria was spotted on NGM agar containing Streptomycin to inhibit growth of contaminating bacteria. The quantity and distribution of food bacteria was calibrated to ensure adequate access to food for the duration of assay while maintaining visibility of the worms.
Test article was delivered to worms by a method compatible with and previously validated on the Automated Lifespan Machine and used by the CIT [Lucanic, et. al. Impact of genetic background and experimental reproducibility on identifying chemical compounds with robust longevity effects. Nature Communications 8 (2017)]. A 200× stock solution was freshly prepared in DMSO immediately before application. 40 μl of DMSO stock (0.5% plate volume) was applied to the plate to coat the food bacteria and then chased immediately with 160 μl water to uniformly distribute a fine precipitate across the surface of the plate. This functioned to provide reservoirs of compound in food, agar, and agar surface.
The ALM used by InVivoBiosystems is based on the Caenorhabditis elegans lifespan machine published by Stroustrup, N. et al. The Caenorhabditis elegans Lifespan Machine. N at Methods 10, 665-670 (2013), with proprietary modifications to improve temperature stability and image acquisition. The scanner unit consists of a modified EPSON V850 and images are processed and analyzed using the ALM software 7. The machine time-of-death calls are trained and validated using the “storyboarding” feature of the ALM software.
The lifespan assay was designed and performed according to published and validated methods, Amrit, F. R. G., Ratnappan, R., Keith, S. A. & Ghazi, A. The C. elegans lifespan assay toolkit. Methods 68, 465-475 (2014); Lucanic, et. al. Manual Lifespan Assay Standard Operating Procedure. Caenorhabditis Intervention Testing Program https://figshare.com/articles/7_CITP_SOP_Manual_Lifespan_Assay/9738197/1. using a modified version of the Automated Lifespan Machine. Worms were age synchronized by bleaching and eggs were plated directly onto NGM agar seeded with UV-I bacteria (Day 1, hatch). On Day 3, when the worms had reached the late L4 stage, they were transferred to dishes containing 100 μM 5-Fluorodeoxyuridine (FUdR) to suppress progeny. On day 5, the worms were washed off the dishes and 30-50 worms were plated on each scanner dish. Plates were immobilized inverted on the bed of an Automated Lifespan Machine which scanned two images per hour of the plates continuously for the next 40 days.
Time of death calls exported from the ALM software were analyzed and plotted using the Lifelines software package developed by Davidson-Pilon, (2019). lifelines: survival analysis in Python. Journal of Open Source Software, 4(40), 1317.

[2] = test system: C. elegans gene expression; test: Whole transcriptome analysis (RNA-Seq) of treated worms; assay type: in vivo
Procedure: To determine the mode of action for SND302 and SND303 the gene transcription in young and aged adults was analyzed by RNA-Seq (whole transcription analysis). For each condition, >300 worms were treated in parallel with the lifespan assay and maintained under identical conditions.
Differential gene expression was performed with EdgeR using […] likelihood ratio tests based on fitting linear models. The likelihood ratios were used to determine the p-values which were subsequently corrected for using the BH false discovery rate (fdr) method. Eventually, differential expressed genes were defined as genes with fdr-corrected p-value of 0.05 or lower, as well as a change in expression of at least 2-fold in a given between-group comparison. Compounds SND302 and SND303 were compared against Urolithin and Vehicle control. […] In general the transcriptomic data corroborates a differential effect for SND303 when compared to SND302 (FIGS. 1-4).
Worms for RNA-Seq were split from the same synchronized pool of worms for the lifespan with each of the three replicates being maintained and treated in parallel. More than 150 worms per replicate were harvested, cleaned by filtration, and frozen at −80° in Trizol. To extract RNA, samples were thawed, vigorously vortexed, and processed using the Direct-zol RNA Miniprep Kit (Zymo Research). All samples exceeded our threshold for RNA quantity and quality. RNA samples were submitted to Novogene Co. Ltd and subjected to more stringent QC, being tested on a Qubit for concentration and run on an agarose gel and on the Agilent […] assess RNA quality and integrity. […] The total RNA was then enriched for poly-mRNA using oligo(dT) paramagnetic beads. DNA libraries were then constructed from this input mRNA using the NEBNext Ultra™ II RNA Library Prep Kit.
These libraries were then further tested by the Qubit for concentration and the Agilent 2100 for library size distribution and quality. In order to properly pool the libraries and load them onto sequencing lanes to ensure the correct number of reads per sample, an even more precise quantification of the library was done via qPCR, and the samples were loaded onto the NovaSeq 6000 platform for a paired-end sequencing run of 150 bp for each end (PE150). The loading concentrations were designed to obtain at least 6.0 Gb (which is the number of billion bases of raw data, determined by the number of reads multiplied by the length of each read). A mean of 7.4 Gb (median 7.3 Gb) raw sequencing data was obtained across all samples, with a minimum of 6.3 Gb and a maximum of 8.5 Gb raw data. Sequencing run data quality control was performed both by Novogene and by an in-house analysis. The raw data set was analyzed for parameters such as the distribution of base quality along the length of the sequencing read, the distribution of error rate along the length of the sequencing read. Reads containing adapter sequences, with N>10% (where N means “base cannot be determined”) and with a low quality (Qscore<=5) for 50% or more of its total bases were removed.

C. elegans [3] = conditions: Ryu et al 2016; cited from earlier work

CC(C)NC(=O)Oc1ccc2c(c1)oc(=O)c1cc(OC(=O)NC(C)C)ccc12 [SND303]
Median lifespan (C. elegans [1]; 25 μM): 29.0 days
Mean lifespan (C. elegans [1]; 25 μM): 27.6 days
Age in days at 25% mortality (C. elegans [1]): 25 days
Age in days at 50% mortality (C. elegans [1]): 29.0 days
Age in days at 75% mortality (C. elegans [1]): 31.8 days
Age in days at 90% mortality (C. elegans [1]): 33.9 days
Age in days at 100% mortality (C. elegans [1]): 39.9 days
Effect on lifespan (C. elegans [1]): clear and statistically significant lifespan extension
Significant differentially-expressed genes ([2]; Day 3, compared to the controls (Vehicle and Urolithin A), 25 μM): 2-3 genes
Expression of gene C50F7.5 ([2]; Day 10): significantly upregulated
Most significant differentially-expressed genes ([2]; Day 10, compared to vehicle): 7 genes
Significant differentially-expressed genes ([2]; Day 10, compared with the UroA control): 3 genes

O=c1oc2cc(O)ccc2c2ccc(O)cc12 [Urolithin A, reference compound]
Median lifespan (C. elegans [1]; 50 μM): 27.8 days
Mean lifespan (C. elegans [1]; 50 μM): 27.0 days
Age in days at 25% mortality (C. elegans [1]): 23.8 days
Age in days at 50% mortality (C. elegans [1]): 27.8 days
Age in days at 75% mortality (C. elegans [1]): 30.2 days
Age in days at 90% mortality (C. elegans [1]): 32.3 days
Age in days at 100% mortality (C. elegans [1]): 37.7 days
Effect on lifespan (C. elegans [1]): did not produce a significant change in lifespan
Effect on lifespan (C. elegans [3]): extended lifespan
Differentially-expressed genes ([2]; Urolithin A compared with the vehicle control): no differentially-expressed genes
